Results reported in patent US20260284016A1, “COMBINATIONS AND METHODS FOR ENHANCING CHECKPOINT INHIBITOR THERAPIES IN CANCER TREATMENT” (PURDUE RESEARCH FOUNDATION, priority 2004, published 2026).

How the values were obtained:
[1] = system: M2-induced THP-1 macrophages; test: Secreted CCL18 and IL-1β in THP-1 supernatants by ELISA; type: cell-based, human; conditions: low concentration range (0.1-10 nM), ELISA
Protocol: FIGS. 6A-6D show graphical data representative of various marker levels measured from M2-induced THP-1 macrophages treated with different concentrations of drugs for 48 hours (FIGS. 6A and 6B) or for 2 hours, then displaced with fresh medium and cultured for the remaining 46 hours (FIGS. 6C and 6D). In both cases, cell supernatants were collected and secreted CCL18 protein and IL-1β was detected by ELISA.
Further, to ensure that the above mRNA analyses accurately reflected the levels of anti-inflammatory cytokines produced by IL-4, IL-6 plus IL-13 stimulated THP-1 cells, the concentrations of CCL18 and IL-1β polypeptides in the THP-1 supernatants were quantitated by ELISA assay.
CCL18 and IL-1β were quantified in induced THP-1 cell supernatants using a human DuoSet ELISA Development System (R&D Systems Europe, Abingdon, UK: #DY394-05) and an IL-1 beta Human ELISA Kit (Thermo Fisher Scientific, Waltham, MA; #BMS224-2) as described by manufactures. BALF samples were analyzed for mouse IFN-γ using ELISA MAX™ Deluxe (Biolegend, San Diego, CA; #430804).
Additionally, cell supernatants were collected and secreted CCL18 protein was detected by ELISA.

[2] = system: M2-induced THP-1 macrophages; test: Reprogramming of M2-polarized THP-1 macrophages, marker mRNA by qPCR; type: cell-based, human; conditions: 2 hours with compound, qPCR
Protocol: THP-1 cells were seeded into 96-well plates at a density of 60,000 cells/well. Cells were differentiated into unpolarized macrophages by 48 hours incubation with 200 nM PMA followed by 24 hours incubation in fresh RPMI medium. […] Cultures were maintained at 37° C., in a humidified 5% CO2 incubator.
Total RNA was isolated from 1×10^5-2×10^5 macrophages using a Quick-RNA™ MicroPrep kit (Zymo Research, Irvine, CA) according to the manufacturer-recommended protocol. The RNA samples were then reverse-transcribed into cDNA using high-capacity cDNA reverse transcription kits (Applied Biosystems, Foster City, CA; #4368814), qPCR analyses were performed using the iTaq™ Universal SYBR Green SuperMix (Bio-Rad Laboratories GmbH, Hercules, CA; #1725121), iCycler thermocycler, and iCycler iQ 3.0 software (Bio-Rad Laboratories GmbH, Hercules, CA) to track the expression of markers characteristic of macrophage polarization states, IL-6, CXCL10, IFNα, IFN-γ and CD86 were used as markers for an M1 phenotype, while CCL18. CD206, CD163 and Arg1 were employed as markers for the M2 phenotype, IL-1β, PDGFβ, MMP9 and TIMP 3 were measured as indicators of an anti-inflammatory phenotype. IRAK-4 was used as an indicator of TLR7 stimulation. To control for specificity of the amplification products, a melting curve analysis was performed. […] Each sample was analyzed independently in triplicate for each marker.
In both data sets, the cells were harvested for gene analysis by qPCR.
Primarily, human monocytic (THP-1) cells were induced to the M2-like phenotype using the methods and materials previously described. In particular, THP-1 cells were seeded into 96-well plates at a density of 60,000 cells/well. Cells were differentiated into unpolarized macrophages by 48 h incubation with 200 nM PMA followed by 24 hours incubation in fresh RPMI medium. The resulting macrophages were polarized to an M2-like phenotype by incubation with […] IL-4, 20 ng/ml […], and 5 ng/mL IL-6 for 48h. Cultures were maintained at 37° C. in a humidified 5% CO2 incubator.
In addition to the nonconjugated TLR7 agonist, conjugated compounds of the present disclosure were likewise evaluated. Human THP-1 cells were induced to macrophages having the M2-like phenotype per the methods set forth herein (e.g., using 20 ng/mL IL-4, 20 ng/mL IL-13, 5 ng/mL IL-6), then reprogrammed with different nM concentrations of various compounds of the present disclosure for 2 hours; namely, a nonconjugated (free drug) TLR7 agonist compound having formula I and/or II (data shown collectively as Compound 3A), a folate-conjugated TLR7 agonist compound having formula XV (having a releasable linker) (e.g., Compound 3B), a folate-conjugated TLR7 agonist compound having formula XVII (having a non-releasable linker) (e.g., Compound 3C), and a folate-conjugated TLR7 agonist compound having formula XVI (having a non-releasable linker) (e.g., Compound 3D). The cells were subsequently harvested for gene analysis by qPCR and the relative expression of CCL18 (FIG. 14A), CD206 (FIG. 14B), and IL-1β (FIG. 14C) analyzed.

BM-induced mice = system: BM-induced mice
Protocol: Studies were also performed to determine if macrophages in pulmonary fibrotic lungs might be specifically targeted with folate-linked drugs in vivo. […] (The BM model is widely regarded to be helpful in terms of enabling mechanistic investigations relevant to fibrogenesis in an in vivo context.)
More specifically, eight-week-old C57BL6 male mice from Charles River (average weight 22 g to 25 g) were housed under pathogen-free conditions at room temperature (22° C.) under a 12 hours light-dark cycle. Mice were placed on a folate deficient chow (Envigo Teklad Global Rat Food Pellets) for 1 week prior to the BM or PBS instillation. Fresh water and folate-deficient diet were freely available. All animal procedures were approved by the Purdue Animal Care and Use Committee in accordance with National Institute of Health guidelines.
Thereafter, the mice were anesthetized with ketamine/xylazine and the necks of the mice were shaved using hair remover lotion and then sterilized with 70% alcohol. A small incision was made on the neck to visualize the trachea. Mice were positioned at a 75-degree angle and injected intratracheally with 100 μL sterile PBS or BM (Cayman Chemicals, Ann Arbor, MI; #13877) dissolved in PBS (0.75 mg/kg) using a 1 cc syringe with 26 G needle. Body weights were monitored every other day throughout the experiment.
Lobes of the right lung collected above were weighed, placed in a pressure-tight vial (Supelco Inc., Bellefonte, PA; #27003), and hydrolyzed with 6N HCl (10 ml/g, v/w) in a sand bath at 120° C., for 3.5 hours. The hydrolyzed solution was cooled at 4° C., for 15 min and transferred to a 1.5 ml Eppendorf tube prior to centrifugation at 12,000 rcf for 15 min at 4° C. Supernatant was carefully collected, aliquoted and used for hydroxyproline (HYP) analysis.
For the subsequent HYP analysis, 10 μl of sample was transferred into a 96-well plate and neutralized with 10 μl of 5.3 M sodium hydroxide solution. Isopropanol ([…]) was then added to each well followed by 20 μl of oxidation buffer and the mixture was incubated on a shaker at room temperature for 5 min. Analytical reagent (260 μl) was added, and the plate was incubated on a shaker at room temperature for 30 seconds and incubated immediately at 60° C., for 25 min. The absorbance was measured at 560 nm (A560) within 15 min. All reagents were prepared according to a previously reported protocol.
For histological analysis of the lung sections, fixed lungs (see above) were embedded in paraffin, sectioned and stained with hematoxylin-eosin (H&E), Masson's trichrome or F3 (anti-mouse FRβ antibody). Tissue sections were examined in a blinded manner by a licensed pathologist. More than 90×10^6 cells were quantified per section using Aperio-Image Scope (Leica Biosystems, Wetzlar, DE).
For this, BM-treated mice were intravenously injected every other day beginning on day 10 with either vehicle (3% DMSO in PBS) or Compound 1B (see FIG. 8A). […] In BM-induced experimental pulmonary fibrosis in mice, inflammation is known to persist for about 9-10 days after BM installation. Because, inflammation to fibrosis switch happens in this model approximately day 9 to day 14, and anti-inflammatory markers start appearing at about day 10, dosing began on day 10 (FIG. 8A).
Two doses were given every other day till day 21. The individual doses on a day are separated by 6 hours to prevent any “tolerance” to TLR agonists. Mice were then sacrificed on day 21 and subjected immediately to bronchoalveolar lavage followed by resection of the lungs for immunohistochemistry and quantitation of collagen and hydroxyproline.

[3] = system: FRβ-expressing macrophages; test: In vivo folate imaging with OTL38, resected organs; parameters: species or system C57BL/6 mice
Protocol: (§1) To evaluate if anti-inflammatory lung macrophages in these mice can be specifically targeted with folate-linked drugs, 10 days after the instillation, 10 nmol (for in vivo imaging) or 100 nmol (for in vivo labeling) of a folate-linked, near infrared fluorescent dye (OTL38) with or without 200-fold excess of FA-glucosamine (a competitor of OTL38) was injected into the tail veins of BM-treated mice and the dye uptake in the major organs was evaluated.
(§2) Finally, for the in vivo folate imaging studies, major organs (heart, lung, spleen, liver, small intestine, large intestine, and kidney) were resected and imaged using an AMI live imager (Spectral Instruments Imaging, Tucson, AZ). For in vivo folate receptor labeling studies, lungs of the mice were harvested immediately following euthanasia, digested with a lung dissociation kit (Miltenyi Biotec, Bergisch Gladbach, DE; #130-098-427) as described by gentleMACS Octo Dissociator with Heathers (Miltenyi Biotec, Bergisch Gladbach, DE; #130-096-427) as described by manual and filtered through a 70 μm cell strainer (Miltenyi Biotec, Bergisch Gladbach, DE: #130-098-462). Cells collected in the filtrate were depleted of erythrocytes by ammonium sulfate lysis, washed 2× in cold PBS and labeled for 30 min on ice with antibodies to desired macrophage markers (FITC-CD11b, Biolegend, San Diego, CA; #101205; FE-F4/80. Biolegend. San Diego, CA: #123109). Labeled macrophages were then washed twice in PBS, stained with 7AAD (viability stain) for 15 min and analyzed by flow cytometry using BD Accuri C6 Software (BD Biosciences, San Jose, CA).
FIGS. 7C and 7D show FRβ IHC staining of human IPF lung tissue (FIG. 7C) and healthy human lung tissue (FIG. 7D). […] After 2 hours, mice were sacrificed prior to analysis. […] For in vivo folate receptor labeling studies, lungs of the mice were harvested immediately following euthanasia, digested and then labeled with antibodies to desired macrophages markers (FITC-CD11b, PE-F4/80) and 7AAD (live/dead staining) and analyzed by flow cytometry.

FRβ positive macrophages = test: In vivo folate receptor labeling with OTL38, flow cytometry of digested lungs; parameters: species or system C57BL/6 mice; conditions: fibrotic mice
Protocol: as §1
as §2, with “Cells collected in the filtrate were depleted of erythrocytes by ammonium sulfate lysis, washed 2× in cold PBS and labeled for 30 min on ice with antibodies to desired macrophage markers (FITC-CD11b, Biolegend, San Diego, CA; #101205; FE-F4/80. Biolegend. San Diego, CA: #123109).” left out, “CA). […]” for “CA).”

| Compound | secretion of CCL18 protein [1] | CCL18 relative expression [2] | CD206 relative expression [2] | IL-1β relative expression [2] | reduction of anti-inflammatory markers relative to the other compounds [2] | further results |
| --- | --- | --- | --- | --- | --- | --- |
| Nc1nc(C(F)(F)F)cc2c1[nH]c(=O)n2Cc1ccc(NCCN2CCCC(CO)C2)nc1 (stereo not drawn) [Compound 3A] | downregulated |  |  |  |  |  |
| Nc1nc2ncc(CNc3ccc(C(=O)NC(CCC(=O)N[C@@H](CSSCCOC(=O)OCC4CCCN(CCNc5ccc(Cn6c(=O)[nH]c7c(N)nc(C(F)(F)F)cc76)cn5)C4)C(=O)O)C(=O)O)cc3)nc2c(=O)[nH]1 (stereo partly drawn) [Compound 3B] | downregulated | reduced | reduced | reduced |  |  |
| Nc1nc2ncc(CNc3ccc(C(=O)N[C@@H](CCC(=O)NCCOCCOCCOCCOCCOCCOCCOCCOCCOCCOCCOCCOCCOCC4CCCN(CCNc5ccc(Cn6c(=O)[nH]c7c(N)nc(C(F)(F)F)cc76)cn5)C4)C(=O)O)cc3)nc2c(=O)[nH]1 (stereo partly drawn) [Compound 3C] | downregulated | reduced | reduced | reduced | most effective | benefit to the subject mice (BM-induced mice; 3 nmol dosage): did not show measurable benefit; hydroxyproline (HP) (BM-induced mice; 10 nmol dosage): decreasing; number of BALF cells (BM-induced mice; 10 nmol dosage): decreasing; survival rates (BM-induced mice; 10 nmol dosage): increased the survival rates |
| Nc1nc2ncc(CNc3ccc(C(=O)N[C@@H](CCC(=O)NCCOCCOCCOCCOCC4CCCN(CCNc5ccc(Cn6c(=O)[nH]c7c(N)nc(C(F)(F)F)cc76)cn5)C4)C(=O)O)cc3)nc2c(=O)[nH]1 (stereo partly drawn) [Compound 3D] | downregulated | reduced | reduced | reduced | most effective |  |
| OTL38 |  |  |  |  |  | OTL38 accumulation in organs ([3]; BM-treated mice, day 10, 10 nmol tail vein, 2 h): pronounced accumulation in the fibrotic lungs; lung accumulation under competition ([3]; BM-treated mice, with 200-fold excess folate-glucosamine): nearly quantitative blockade of lung accumulation; OTL38 fluorescence in organs ([3]; healthy mice, 10 nmol tail vein, 2 h): only observed in the kidneys of healthy mice; macrophage-like cells with folate-targeted dye retention (FRβ positive macrophages; 100 nmol OTL38): about 22%; folate-dye retention under competition (FRβ positive macrophages; 100 nmol OTL38 with 200-fold excess folate-glucosamine): blocked essentially all folate-dye retention |
